Square brackets hold non-standard residues; d marks the D form. Ends that are not written are not given here. Peptide text beside a SMILES is read from it. * marks the point of attachment. Octanoyl = CCCCCCCC(=O)*
Test system: murine Spontaneous Ovarian Teratoma cells (SOT cells)
Assay: Survival and ascites accumulation of mice injected with Spontaneous Ovarian Teratoma cells
Type: in vivo
Settings: for ILS / Median Survival Time: Table I, i.p. days 2 and 5 after SOT cells; for delay of accumulation of ascites fluid (body weight data): Example 1, FIG. 1, untreated mice began to accumulate fluid 5 to 7 days after implantation; for increase in lifespan: Example 1, FIG. 2, median day of death as endpoint; for accumulation of ascites fluid (body weight data) vs control group: Example 3, FIG. 4, peptides 20 mg/kg at 2 days, or 2 and 5 days, adriamycin 5 mg/kg on day 2 only; for survival time and survivors vs control group: Example 3, FIG. 3, 20 mg/kg at 2 days, or at 2 days and 5 days after SOT cells
Method: Groups of mice, with six mice in each group, were injected with murine Spontaneous Ovarian Teratoma cells (SOT cells). At day 2, or at day 2 and day 5 after injection, the mice were injected with a saline solution, 5 mg/kg adriamycin (day 2 only), with 22 mg/kg of a peptide having the structure (SEQ ID NO:115)-NH2, or, in which each amino acid residue of (SEQ ID NO:115)-NH2 is a D-amino acid residue, such peptide hereinafter referred to as D-(SEQ ID NO:115)-NH2 or with 130 mg/kg of Cecropin A (SEQ ID NO:116)-NH2. The animals were monitored for survival time, the number of survivors in each group, the increase in lifespan, and the increase in body weight.
The treatment with adriamycin increased the lifespan by 76%.
Groups of mice, with 5 or 6 mice in each group, were injected with Spontaneous Ovarian Teratoma Cells. At 2 days and 5 days after the injection of the Spontaneous Ovarian Teratoma Cells (SOT cells), the groups of mice were injected intraperitoneally with a control saline solution, adriamycin, or with one of the following peptides:
The mice in each group were then monitored for median survival time (in days) and for increase in life span (ILS) vis a vis the control group. The median survival time is the day of death of the third mouse in each group. The results for the groups of mice given intraperitoneal injections of peptide at days 2 and 5 following injection of SOT cells are given in Table I below.
Groups of mice, with 6 mice in each group, were injected with Spontaneous Ovarian Teratoma Cells as described in Example 2. At 2 days, or at 2 days and 5 days after the injection of the SOT cells, the groups of mice were injected with saline (control), adriamycin (5 mg/kg-on day 2 only), or with 20 mg/kg of (SEQ ID NO:115)-NH2 or D-(SEQ ID NO:115)-NH2. The mice were then monitored for survival time, as well as for body weight.

[1] = 22 mg/kg D-(SEQ ID NO:115)-NH2, 130 mg/kg (SEQ ID NO:116)-NH2, 5 mg/kg adriamycin
[2] = administered on day 2 only, 22 mg/kg D-(SEQ ID NO:115)-NH2, 130 mg/kg (SEQ ID NO:116)-NH2, 5 mg/kg adriamycin
[3] = administered on day 2 and day 5, 22 mg/kg D-(SEQ ID NO:115)-NH2, 130 mg/kg (SEQ ID NO:116)-NH2
[4] = dose 130 mg/kg/day, control value not given

Q: How did the ILS (dose 20 mg/kg/day, controls 21) turn out when `CCCCCCCC(=O)N[C@@H](CCCCN)C(=O)N[C@H](C(=O)N[C@@H](C)C(=O)NCC(=O)N[C@@H](CCCCN)C(=O)N[C@H](C(=O)N[C@@H](C)C(=O)N[C@@H](CCCCN)C(=O)N[C@H](C(=O)N[C@@H](C)C(=O)NCC(=O)N[C@@H](CCCCN)C(=O)N[C@H](C(=O)N[C@@H](C)C(=O)N[C@@H](CCCCN)C(=O)N[C@H](C(=O)N[C@@H](C)C(=O)NCC(=O)N[C@@H](CCCCN)C(=O)N[C@H](C(=O)N[C@@H](C)C(N)=O)[C@@H](C)CC)[C@@H](C)CC)[C@@H](C)CC)[C@@H](C)CC)[C@@H](C)CC)[C@@H](C)CC` [Oct-(SEQ ID NO:27)-NH2] (Octanoyl-KIAGKIAKIAGKIAKIAGKIA-NH2) was run?
A: 100%

Q: And the “Median Survival Time” value (dose 20 mg/kg/day, controls 21)?
A: 42 days

Q: Which results are given for `COc1cccc2c1C(=O)c1c(O)c3c(c(O)c1C2=O)C[C@@](O)(C(=O)CO)C[C@@H]3O[C@H]1C[C@H](N)[C@H](O)[C@H](C)O1` [adriamycin, reference compound]?
A: delay of accumulation of ascites fluid (body weight data) [1]: at least 20 days; increase in lifespan [2]: 76%; accumulation of ascites fluid (body weight data) vs control group: delayed and was also significantly less

Q: “(SEQ ID NO:115)-NH2: peptide having the structure (SEQ ID NO:115)-NH2; sequence not printed in the text (GIGKFLKKAKKFAKAFVKIINN-NH2)” was tested. Which “survival time and survivors vs control group” value did it give?
A: significantly greater survival times and had more survivors

Q: And the “accumulation of ascites fluid (body weight data) vs control group” value?
A: delayed and was also significantly less

Q: What about the ILS (dose 20 mg/kg/day, controls 21) of the same compound?
A: 100%

Q: What about the “Median Survival Time” value (dose 20 mg/kg/day, controls 21) of the same compound?
A: 42 days

Q: What about the ILS (dose 22 mg/kg/day, controls 21) of the same compound?
A: 81%

Q: What about the “Median Survival Time” value (dose 22 mg/kg/day, controls 21) of the same compound?
A: 38 days

Q: “(SEQ ID NO:116)-NH2: Cecropin A, amide (KWKLFKKIEKVGQNIRDGIIKAGPAVAVVGQATQIAK-NH2)” was tested. Which “delay of accumulation of ascites fluid (body weight data)” value [1] did it give?
A: at least 20 days

Q: And the increase in lifespan [3]?
A: 112%

Q: And the increase in lifespan [2]?
A: 100%

Q: And the ILS [4]?
A: 112%

Q: And the “Median Survival Time” value [4]?
A: 36 days

Q: What does the source list for “(SEQ ID NO:117)-NH2: peptide of the sequence listing, amide; sequence not printed in the text (GIGKFLKSAKKFGKAFVKILNS-NH2)”?
A: ILS (dose 45 mg/kg/day, controls 21): 83%; Median Survival Time (dose 45 mg/kg/day, controls 21): 38 days

Q: How did the “delay of accumulation of ascites fluid (body weight data)” value [1] turn out when “D-(SEQ ID NO:115)-NH2: (SEQ ID NO:115)-NH2 in which each amino acid residue is a D-amino acid residue (G[dI]G[dK][dF][dL][dK][dK][dA][dK][dK][dF][dA][dK][dA][dF][dV][dK][dI][dI][dN][dN]-NH2; N-terminus assumed; SMILES CC[C@@H](C)[C@@H](NC(=O)CN)C(=O)NCC(=O)N[C@H](CCCCN)C(=O)N[C@H](Cc1ccccc1)C(=O)N[C@H](CC(C)C)C(=O)N[C@H](CCCCN)C(=O)N[C@H](CCCCN)C(=O)N[C@H](C)C(=O)N[C@H](CCCCN)C(=O)N[C@H](CCCCN)C(=O)N[C@H](Cc1ccccc1)C(=O)N[C@H](C)C(=O)N[C@H](CCCCN)C(=O)N[C@H](C)C(=O)N[C@H](Cc1ccccc1)C(=O)N[C@@H](C(=O)N[C@H](CCCCN)C(=O)N[C@@H](C(=O)N[C@@H](C(=O)N[C@H](CC(N)=O)C(=O)N[C@H](CC(N)=O)C(N)=O)[C@H](C)CC)[C@H](C)CC)C(C)C)” was run?
A: at least 20 days

Q: What about the increase in lifespan [3] of the same compound?
A: 144%

Q: What about the increase in lifespan [2] of the same compound?
A: 115%

Q: And the “survival time and survivors vs control group” value?
A: significantly greater survival times and had more survivors

Q: What about the “accumulation of ascites fluid (body weight data) vs control group” value of the same compound?
A: delayed and was also significantly less

Q: What about the ILS (dose 22 mg/kg/day, controls 17) of the same compound?
A: 144%

Q: And the “Median Survival Time” value (dose 22 mg/kg/day, controls 17)?
A: 41.5 days

Q: And the ILS (dose 22 mg/kg/day, controls 21)?
A: 52%

Q: And the “Median Survival Time” value (dose 22 mg/kg/day, controls 21)?
A: 32 days

Q: Which ILS (dose 15 mg/kg/day, controls 21) does the source give for “D-(SEQ ID NO:117)-NH2: D-form of (SEQ ID NO:117)-NH2 (G[dI]G[dK][dF][dL][dK][dS][dA][dK][dK][dF]G[dK][dA][dF][dV][dK][dI][dL][dN][dS]-NH2; N-terminus assumed; SMILES CC[C@@H](C)[C@@H](NC(=O)CN)C(=O)NCC(=O)N[C@H](CCCCN)C(=O)N[C@H](Cc1ccccc1)C(=O)N[C@H](CC(C)C)C(=O)N[C@H](CCCCN)C(=O)N[C@H](CO)C(=O)N[C@H](C)C(=O)N[C@H](CCCCN)C(=O)N[C@H](CCCCN)C(=O)N[C@H](Cc1ccccc1)C(=O)NCC(=O)N[C@H](CCCCN)C(=O)N[C@H](C)C(=O)N[C@H](Cc1ccccc1)C(=O)N[C@@H](C(=O)N[C@H](CCCCN)C(=O)N[C@@H](C(=O)N[C@H](CC(C)C)C(=O)N[C@H](CC(N)=O)C(=O)N[C@H](CO)C(N)=O)[C@H](C)CC)C(C)C)” here?
A: 67%

Q: What about the “Median Survival Time” value (dose 15 mg/kg/day, controls 21) of the same compound?
A: 35 days

Reference: patent US5635479A, “Treatment of gynecological malignancies with biologically active peptides” (Magainin Pharmaceuticals Inc., priority 1995, dated 1997)
